{"source": "patent US6638974B1", "about": "“Ascorbyl esters for the treatment of cancer” (University of South Florida, priority 1999, dated 2003)", "key": {"Advanced colon cancer": {"system": "Advanced colon cancer", "details": "single agent; cited from earlier work"}, "HT29 cells [1]": {"system": "HT29 cells", "test": "MTT cell viability assay, HT29", "format": "cell-based, human", "details": "for inhibition at 150 µM: Homo sapiens, HT-29, 150 μM (5 FU at a similar concentration), read-out: inhibition of HT29 cell growth (MTT); for effect on HT29 cells (MTT): similar concentrations and incubation times as As-P (24 and 48 hours)", "method": "(§1) HT-29, a human colon adenocarcinoma cell line, and CCD 18, a normal colon fibroblast, were obtained from the American Type Culture Collection (Rockville, Md.). The cells were grown in RPM1 1640 medium containing HEPES (20 mM), fetal bovine serum (10%), sodium bicarbonate (1 g/L), and penicillin (10 U/ml), streptomycin (10 ug/ml) at 37° C. in 5% CO2 humidified atmosphere.\n(§2) The effect of various concentrations of As-P, ascorbate, palmitate or 5-fluorouracil (5 FU) on the viability and/or proliferation of HT29 or CCD 18 cells were evaluated. Cells were seeded in 96-well culture plates at 1×10^4 cells/well. The following day, As-P, ascorbate, palmitate or 5 FU were added at various concentrations. Cell viability was evaluated by the MTT assay 24 hours or 48 hours after the addition of the compounds. The effect of As-P on the cell cycle of HT29 cells was also investigated by flow cytometry."}, "CCD 18 cells": {"system": "CCD 18 cells", "test": "MTT cell viability assay, CCD 18", "format": "cell-based, human", "details": "for inhibition at 150 µM: Homo sapiens, Fibroblast, read-out: inhibitory effect on CCD 18 fibroblasts (MTT); for effect on CCD18 fibroblasts (MTT): similar concentrations and incubation times as As-P (24 and 48 hours)", "method": "as §1, §2"}, "HT29 cells [2]": {"system": "HT29 cells", "test": "Cell cycle analysis by flow cytometry, HT29", "format": "cell-based, human", "details": "24 hours", "method": "HT29 cells were seeded into 25 cm^2 flasks at a density of 1×10^4 cells/ml. 72 hours after seeding, As-P was added to HT29 cells in culture at a final concentration of 50 μM, 100 μM, 150 μM. Control cells received medium only. After 24 hours of incubation, cells were harvested and processed for flow cytometry DNA analysis."}}, "note": "Read-outs that look alike come from different tables or passages of the source.", "data": [{"molecule": "O=c1[nH]cc(F)c(=O)[nH]1", "note": "[5 FU, 5-Fluorouracil, reference compound]", "values": [{"measurement": "response rate", "setting": "Advanced colon cancer", "value": "10-20%"}, {"measurement": "effect on growth of HT29 cells at 24 hours", "setting": "HT29 cells [1]; 24 hours", "value": "little or no inhibitory effect"}, {"measurement": "inhibition of growth of HT29 cells at 48 hours", "setting": "HT29 cells [1]; 48 hours, concentration not given", "value": "approximately 40%"}, {"measurement": "inhibition at 150 µM", "setting": "HT29 cells [1]; 24 hours", "value": 14, "unit": "%"}, {"measurement": "inhibition at 150 µM", "setting": "HT29 cells [1]; 48 hours", "value": 40, "unit": "%"}, {"measurement": "effect on growth of CCD 18 fibroblasts at 24 hours", "setting": "CCD 18 cells; 24 hours", "value": "little or no inhibitory effect"}, {"measurement": "effect on CCD 18 cells at 48 hours", "setting": "CCD 18 cells; 48 hours", "value": "little effect"}]}, {"molecule": "CCCCCCCCCCCCCCCC(=O)OC[C@H](O)[C@H]1OC(=O)C(O)=C1O", "note": "[As-P, L-Ascorbyl 6-palmitate]", "values": [{"measurement": "inhibition at 150 µM", "setting": "HT29 cells [1]; 24 hours", "value": 73, "unit": "%"}, {"measurement": "inhibition at 150 µM", "setting": "HT29 cells [1]; 48 hours", "value": 89, "unit": "%"}, {"measurement": "effect on HT29 cells at higher concentrations", "setting": "HT29 cells [1]; above 100 μM", "value": "cytotoxic effect"}, {"measurement": "effect on HT29 cell growth at lower concentrations", "setting": "HT29 cells [1]; below 100 μM", "value": "stimulatory effect"}, {"measurement": "effect on HT29 cell growth", "setting": "HT29 cells [1]; higher concentrations (>125 μM)", "value": "great inhibitory effect"}, {"measurement": "effect on HT29 cell growth", "setting": "HT29 cells [1]; lower concentrations (<75 μM)", "value": "slight stimulating effect"}, {"measurement": "% G2 + M", "setting": "HT29 cells [2]; HT29, 50 μM As-P", "value": 7.8, "unit": "%"}, {"measurement": "% G4/G1", "setting": "HT29 cells [2]; HT29, 50 μM As-P", "value": 57.1, "unit": "%"}, {"measurement": "% S", "setting": "HT29 cells [2]; HT29, 50 μM As-P", "value": 35.1, "unit": "%"}, {"measurement": "% G2 + M", "setting": "HT29 cells [2]; HT29, 100 μM As-P", "value": 4.3, "unit": "%"}, {"measurement": "% G4/G1", "setting": "HT29 cells [2]; HT29, 100 μM As-P", "value": 73.1, "unit": "%"}, {"measurement": "% S", "setting": "HT29 cells [2]; HT29, 100 μM As-P", "value": 22.6, "unit": "%"}, {"measurement": "% G2 + M", "setting": "HT29 cells [2]; HT29, 150 μM As-P", "value": 3.2, "unit": "%"}, {"measurement": "% G4/G1", "setting": "HT29 cells [2]; HT29, 150 μM As-P", "value": 86.1, "unit": "%"}, {"measurement": "% S", "setting": "HT29 cells [2]; HT29, 150 μM As-P", "value": 10.7, "unit": "%"}, {"measurement": "inhibition at 150 µM", "setting": "CCD 18 cells; 24 hours", "value": "~20", "unit": "%"}, {"measurement": "inhibition at 150 µM", "setting": "CCD 18 cells; 48 hours", "value": "~20", "unit": "%"}, {"measurement": "effect on CCD 18 fibroblasts at lower concentrations", "setting": "CCD 18 cells; lower concentrations", "value": "stimulatory effect"}]}, {"molecule": "O=C1O[C@H]([C@@H](O)CO)C(O)=C1O", "note": "[ascorbate, reference compound]", "values": [{"measurement": "effect on HT29 cells (MTT)", "setting": "HT29 cells [1]", "value": "no inhibitory effect"}, {"measurement": "effect on CCD18 fibroblasts (MTT)", "setting": "CCD 18 cells", "value": "no inhibitory effect"}]}, {"molecule": "CCCCCCCCCCCCCCCC(=O)O", "note": "[palmitate, reference compound]", "values": [{"measurement": "effect on HT29 cells (MTT)", "setting": "HT29 cells [1]", "value": "no inhibitory effect"}, {"measurement": "effect on CCD18 fibroblasts (MTT)", "setting": "CCD 18 cells", "value": "no inhibitory effect"}]}]}
